According to publication PMC4301998 (Bioorganic & medicinal chemistry, 2014):
Like-named read-outs stand apart in the source and are kept apart here.

Tests used:
[1] = system: nine human cancer cell lines and three non-cancerous cell lines; additional colon cancer cells; assay: MTT cell survival assay, statements over several cell lines; type: cell-based; details: for IC50: Homo sapiens
[2] = system: HCT-116, HCT-15, and HEK293 cells; assay: Morphological analysis by microscopy; type: cell-based, human; details: 0, 0.5, 2, or 10 μM, 68 hrs of treatment; HCT-116, HCT-15, HEK293
[3] = system: HEK293/R2 (ABCG2-overexpressing cells); assay: MTT cytotoxicity in ABCG2-overexpressing cells; type: cell-based, human; details: HEK293/R2 vs HEK293/pcDNA3.1, MTT
[4] = system: HCT-116 colon cancer cells; assay: MTT cell survival assay, HCT-116; type: cell-based; details: Homo sapiens, HCT-116, read-out: IC50 ± SD, HCT-116
HEK293/ABCB1 cells = assay: MTT cytotoxicity in ABCB1-overexpressing cells; type: cell-based, human; details: HEK293/ABCB1 vs HEK293/pcDNA3.1, MTT
HCT-116 cells = assay: Chromosomal DNA fragmentation assay; type: cell-based, human; details: 2.5 μM, 6 hr
human PXR = molecular target: T1, human PXR (Homo sapiens, UniProt O75469); assay: PXR transactivation assay; details: HepG2 reporter gene assay, 24 hr treatment, vs DMSO; IND-2 at 1 or 10 μM
T1 sequence (O75469 1-434): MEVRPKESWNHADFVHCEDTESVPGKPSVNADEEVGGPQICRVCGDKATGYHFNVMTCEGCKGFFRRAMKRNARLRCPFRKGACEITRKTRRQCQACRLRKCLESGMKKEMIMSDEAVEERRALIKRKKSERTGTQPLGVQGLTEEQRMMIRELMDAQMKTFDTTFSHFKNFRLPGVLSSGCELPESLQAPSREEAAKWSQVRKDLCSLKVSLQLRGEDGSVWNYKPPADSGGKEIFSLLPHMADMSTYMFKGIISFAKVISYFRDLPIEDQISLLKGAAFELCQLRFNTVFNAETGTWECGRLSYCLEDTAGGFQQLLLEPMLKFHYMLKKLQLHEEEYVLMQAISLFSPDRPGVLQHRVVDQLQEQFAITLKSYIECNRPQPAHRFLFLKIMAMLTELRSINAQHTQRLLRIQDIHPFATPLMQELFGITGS

HepG2 cells = details: 24 hr, CellTiter-Glo
[5] = system: S1-M1-80 cells (G482 mutant ABCG2-overexpressing); assay: MTT cytotoxicity in drug-resistant colon cancer cells; type: cell-based, human; details: S1-M1-80 vs S1, MTT; p < 0.001

SMILES: Cc1cc(=O)n2nc3nc4ccccc4cc3c2[nH]1 [IND-1, 2-Methylpyrimido[1”,2”:1,5]pyrazolo[3,4-b]quinoline-4(1H)-one]
- IC50 ([1]; read-out: IC50 on the tested cells): > 40000 nM

SMILES: Cc1cc(Cl)n2nc3nc4ccccc4cc3c2n1 [IND-2, 4-Chloro-2-methyl pyrimido[1“,2”:1,5]pyrazolo[3,4-b]quinoline]
- morphological changes of cells [2]: morphological changes
- IC50 ([1]; DU-145, read-out: IC50 values against prostate cancer cells): 800 to 1200 nM
- IC50 ([1]; read-out: IC50 values on colon cancer cells): < 1000 nM
- selectivity for inhibition of colon cancer cells relative to HEK293 cells ([1]; colon cancer cells vs HEK293): 10-15 fold
- selectivity relative to NIH/3T3 mouse fibroblast cells and MDCK cells ([1]; colon cancer cells vs NIH/3T3 and MDCK): 20-40 fold
- selectivity for colon cancer cells relative to other cancer cells ([1]; vs breast, ovarian, and hepatocellular carcinoma cells): 10-30 fold
- resistance of ABCG2-overexpressing cells [3]: no substantial resistance
- IC50 [4]: 634 ± 120 nM
- resistance of ABCB1-overexpressing cells (HEK293/ABCB1 cells): no substantial resistance
- fragmentation of chromosomal DNA (HCT-116 cells): led to fragmentation of chromosomal DNA
- PXR transactivation of CYP3A4 promoter activity (human PXR): did not affect PXR transactivation
- HepG2 cell viability (cytotoxicity) (HepG2 cells; 1 μM): non-cytotoxic
- HepG2 cell viability (cytotoxicity) (HepG2 cells; 10 μM): marginally cytotoxic

SMILES: Cc1cc(N(C)C)n2nc3nc4ccccc4cc3c2n1 [IND-3, N,N,2-Trimethyl benzopyrido[2’,3’:3,4]pyrazolo[1,5-a]pyrimidin-4-amine]
- IC50 ([1]; read-out: IC50 values against ovarian and breast cancer cells): 44000 to 50000 nM

SMILES: CCc1c2c(nc3ccc(O)cc13)-c1cc3c(c(=O)n1C2)COC(=O)[C@]3(O)CC [SN-38]
- resistance of S1-M1-80 cells to the drug [5]: significant resistance

SMILES: CC[C@@]1(O)C(=O)OCc2c1cc1n(c2=O)Cc2cc3c(CN(C)C)c(O)ccc3nc2-1 [topotecan]
- resistance of S1-M1-80 cells to the drug [5]: significant resistance
